Results on eleven molecules are retold here after patent publication US20060014813A1, “Pharmaceutical compounds that regenerate in vivo” (priority 2003, published 2006).

The subject of one data set is COX-2. The conditions noted are these: animal models of Parkinson's disease; cited from earlier work.
A further data set addresses T1, msrA (Bos taurus, UniProt P54149).
T1 construct: made in house; host or cells: E. coli
T1 sequence (P54149 21-233): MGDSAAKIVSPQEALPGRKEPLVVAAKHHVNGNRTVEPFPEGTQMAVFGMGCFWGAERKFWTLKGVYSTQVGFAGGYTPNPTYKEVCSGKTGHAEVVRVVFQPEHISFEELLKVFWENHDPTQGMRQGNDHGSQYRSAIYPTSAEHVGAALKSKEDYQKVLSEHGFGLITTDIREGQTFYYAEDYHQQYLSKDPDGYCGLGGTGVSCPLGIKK
Nature of the data set: Calorimetric test of whether a compound is turned over by msrA (protein injected into compound solution). The data set is classed as biochemical, bovine. The conditions noted are these: compound at 500 μM or as high as possible, three injections of msrA, heat evolved. How it is done: Compounds 105-108 in the list were only soluble below 1 mM. However, an assessment was made as to whether those compounds were substrates for msrA (i.e., whether they are turned over by the enzyme), by employing the following experimental protocol. The compounds were dissolved in the usual buffer [50 mM Tris, 50 mM KCl, 5 mM TCEP, pH 7.50] at a concentration of 500 μM, or as high as possible. 1.8 ml of this solution was loaded into the calorimetric cell, while the syringe was filled with a […] solution of msrA in the same buffer. After the stirring and equilibration period has elapsed, three injections of protein were made, spaced out over 20 minute intervals. If the compound is a substrate for msrA, a large amount of heat will be evolved after the first injection (several millicalories generated over ˜10 minutes), while the other two injections of protein will register only small heats (tens of microcalories), before the signal quickly returns to the baseline. These smaller heats represent the heat of dilution of the protein into the solution in the calorimetric cell.
Once the substrate has been fully reacted and the heat output has returned to the baseline, further injections of protein show only the heat of dilution of the enzyme.

For the next data set, the target named is T2, bovine msrA (Bos taurus, UniProt P54149).
T2 construct: made in house; host or cells: E. coli
T2 sequence (P54149 21-233): T1 sequence (P54149 21-233)
Nature of the data set: Methionine sulfoxide reductase assay by isothermal titration calorimetry (kcat, KM). The class given is biochemical. The conditions noted are these: substrate for msrA; 300 nM enzyme, pH 7.50, 37° C. Here is the method:
(§1) The compounds of the present invention may be assayed for activity both in vitro and in vivo. For example, in order to assay whether a compound of this invention will serve as a regenerable Msr substrate, the compound is titrated in several increments into a solution of the enzyme msrA (pH 7.5, 37 °C, reducing buffer) contained in a microcalorimeter. The heat (ΔH) from the reaction is measured at each step. These power output levels are converted into rates of reaction according to Todd & Gomez, Anal. Biochem., 296, pp. 1-9 (2001), and the resulting rates are plotted versus substrate concentration. From this plot, the kcat and KM are determined according to standard Michaelis-Menton enzyme kinetics.
An assay using isothermal titration calorimetry was developed. […] The quicker such compounds are converted back to their reduced form by MSR, the more equivalents of ROS they will eliminate before being cleared from the body. The assay was used to determine the enzymatic parameters (kcat and KM) of the compounds of this invention interacting with msrA under standard conditions. Chemical modifications that increase kcat, a measure of how quickly a compound was turned over by the enzyme, and/or decrease its KM, a measure of how readily a compound bound to the enzyme, represent improvements in that compound's ability to be efficiently processed by msrA.
In order to run the assay bovine msrA was overexpressed in E. coli and purified according to the method described in Lowther et al., Proc. Natl. Acad. Sci. USA, 97, pp. 6463-6468 (2000), the disclosure of which is herein incorporated by reference. A 300 nM solution of the enzyme was prepared in 50 mM Tris, 50 mM KCl, 4 mM tris(carboxyethyl)phosphine (TCEP), pH 7.50. A 25 mM solution of the compound to be tested was prepared in the identical buffer. A 1.8 ml aliquot of the msrA enzyme solution was loaded into the cell of a VP-ITC instrument from Microcal Corp. (Northampton, Mass.). The test compound solution was loaded into the syringe, and the entire system was allowed to come to thermal equilibrium at 37° C. while stirring at a rate of 300 rpm. Once equilibrium was established, a series of small injections ([…]) of the compound into the protein solution were made, and the increasing power output of the enzyme was measured after each injection, relative to the instrument baseline. These power output levels were converted into rates of reaction, according to Todd & Gomez, Anal. Biochem., 296, pp. 1-9 (2001), the disclosure of which is herein incorporated, and the resulting rates were plotted against substrate concentration. From this plot, the kcat and KM were determined with a computer fitting routine according to standard Michaelis-Menton enzyme kinetics.
To ensure that the compounds would be substrates for MSR, we determined the substrate specificities of MSR by choosing test compounds that contained a sulfoxide moiety and testing those compounds for MSR activity in the enzyme assay described below. Table 1 sets forth compounds that were tested for their ability to serve as MSR substrates using the isothermal titration calorimetry assay described above: […]
Background: ITC needs no label: the signal is the heat of the interaction.

Data set [1] in a line: Solubility of test compounds in assay buffer. The class given is physicochemical. The note with it: Tris assay buffer, pH 7.5, aqueous buffer; 50 mM Tris, 50 mM KCl, 5 mM TCEP, pH 7.50.
In a further data set the test system is reactive oxygen species. The conditions noted are these: systemic injection; cited from earlier work.
Substrate in data set [2]: CC1=C(CC(=O)O)c2cc(F)ccc2/C1=C\c1ccc([S+](C)[O-])cc1
As to the kind of experiment: purified protein, by the assay type. The note with it: other: substrate for msrA, 300 nM enzyme, pH 7.50, 37° C, pH 7.5.

Substrate in data set [3]: C[S+]([O-])CC[C@H](N)C(=O)O
Nature of the data set: purified protein, by the assay type. The note with it: other: substrate for msrA, 300 nM enzyme, pH 7.50, 37° C, pH 7.5.

Substrate in data set [4]: CC1=C(CC(=O)NC(CC[S+](C)[O-])C(=O)O)c2cc(F)ccc2/C1=C\c1ccc([S+](C)[O-])cc1
As to the kind of experiment: purified protein, by the assay type. The note with it: other: substrate for msrA, 300 nM enzyme, pH 7.50, 37° C, pH 7.5. The data set is classed as biochemical, bovine. How it is done:
as §1
An assay using isothermal titration calorimetry was developed. […] Chemical modifications that increase kcat, a measure of how quickly a compound was turned over by the enzyme, and/or decrease its KM, a measure of how readily a compound bound to the enzyme, represent improvements in that compound's ability to be efficiently processed by msrA. […]
To ensure that the compounds would be substrates for MSR, we determined the substrate specificities of MSR by choosing test compounds that contained a sulfoxide moiety and testing those compounds for MSR activity in the enzyme assay described below. […]

What is called Km is the concentration of substrate that gives half-maximal velocity. What is called solubility is the dissolved amount per volume that the medium holds. Higher therefore signals a readily soluble substance. A word on the kcat: it is the maximal rate divided by the concentration of active sites.

`CS(=O)(=O)c1ccc(C2=C(c3ccccc3)C(=O)OC2)cc1` [Vioxx]: the “partial recovery of dopamine production” value in the data set with COX-2 is approximately 20%.
In the case of `C[S+]([O-])CC[C@H](N)C(=O)O` (some centres unmarked) [compound 100, methionine sulfoxide], the “substrate for msrA (turned over by the enzyme)” value on msrA is “produces the large heat output”.
For the molecule `C[S+]([O-])c1ccccc1` (centres unmarked) [compound 102, methyphenylsulfoxide], at bovine msrA, the Kcat stood at 0.46 s⁻¹ and the Michaelis constant (Km) is 750 µM.
In the same order, the values of `C[S+](C)[O-]` [compound 103, DMSO] are 0.064 s⁻¹ and 314 µM.
Take `C[S+]([O-])c1ccc(-c2cc(C(F)(F)F)nn2-c2ccc(S(N)(=O)=O)cc2)cc1` (centres unmarked) [compound 105]: the solubility in data set [1] is less than 1000 µM.
On the same count and under the same terms, the figure for `C[S+]([O-])c1ccc(CC(=O)O)cc1` (centres unmarked) [compound 106] is less than 1000 µM; for `CSc1ccc(/C=C2/C(C)=C(CC(=O)NC(CC[S+](C)[O-])C(=O)O)c3cc(F)ccc32)cc1` (centres unmarked) [compound 107] it is less than 1000 µM.
Still for that read-out and setting: the figure for `C[S+]([O-])c1ccc(-c2cc(C(=O)O)nn2-c2ccc(S(N)(=O)=O)cc2)cc1` (centres unmarked) [compound 108] is less than 1000 µM.
In turn, `CS(=O)(=O)CC[C@H](N)C(=O)O` [compound 109, methionine sulfone] returned a Kcat on bovine msrA of 0 s⁻¹. The “substrate for msrA (turned over by the enzyme)” value at msrA is “does not get turned over by msrA”; at msrA (listed as methionine sulfone) it was “not a substrate for msrA”.
As to `CC(C)(C)[N+]([O-])=Cc1ccccc1` [phenyl-N-tert-butylnitrone (PBN), phenyl-N-tert-butylnitrone], in the data set with reactive oxygen species, the “relief of SNL-induced mechanical allodynia” value is given as “relieves SNL-induced mechanical allodynia in a dose-dependent manner”.

B1: bovine msrA (Bos taurus) (protein)
chain: T1 sequence (P54149 21-233)
notes: made in house; host or cells: E. coli
With B1, the results for the Km in data set [2], in data set [3] and in data set [4] were 112 µM, 504 µM and 7.6 µM, respectively. Besides, the kcat was 0.56 s⁻¹ in data set [2], 0.27 s⁻¹ in data set [3] and 0.27 s⁻¹ in data set [4].
